According to publication PMC9800617, “Pharmacokinetics/pharmacodynamics of polymyxin B in patients with bloodstream infection caused by carbapenem-resistant Klebsiella pneumoniae” (Frontiers in Pharmacology, 2022):
“And” between values parts separate entries of the source, which are not always exact repeats. Identical values can stand only once. Bridge positions count the residues as written; N and C are the ends. Square brackets hold non-standard residues; d marks the D form. Peptide text beside a SMILES is read from it. * marks the point of attachment. X1 = CC[C@H](C)CCCCC(=O)*; Dab = NCC[C@H](N)C(=O)O

Experiment: Safety (adverse events, renal function) in BSI patients
Assay type: in vivo, human
Description: The definition of different population groups for safety and efficacy analysis is shown in Supplementary Table S2. Briefly, safety was evaluated based on adverse events (AEs) in patients who received at least one polymyxin B dose. Adverse events were recorded based on patient self-reporting as well as abnormal laboratory test results including serum chemistry and routine blood and urinary testing. Acute kidney injury (AKI) was graded according to the RIFLE criteria ([Bellomo et al., 2004]). The primary endpoint was culture-confirmed bacterial eradication of CRKP from the blood evaluated by blood cultures taken every 3 days following the first dose of polymyxin B administration. Secondary endpoints were clinical outcome (clinical cure or improvement, Supplementary Table S3) evaluated in patients who received at least 3 days of polymyxin B treatment, and 28-day all-cause mortality evaluated in patients who completed 14 days of polymyxin B treatment.

[1] = nine patients, 2.5 mg/kg loading, 1.25 mg/kg/12 h iv

CC[C@H](C)CCCCC(=O)N[C@@H](CCN)C(=O)N[C@H](C(=O)N[C@@H](CCN)C(=O)N[C@H]1CCNC(=O)[C@H]([C@@H](C)O)NC(=O)[C@H](CCN)NC(=O)[C@H](CCN)NC(=O)[C@H](CC(C)C)NC(=O)[C@@H](Cc2ccccc2)NC(=O)[C@H](CCN)NC1=O)[C@@H](C)O [polymyxin B] (X1-[Dab]T[Dab][Dab][Dab][dF]L[Dab][Dab]T; lactam 4-C)
incidence of polymyxin B-induced AKI (RIFLE criteria) (5/9 patients): 55.6% | patients with at least one of neurotoxicity, nephrotoxicity, hyperpigmentation (8/9 patients): 88.9% | abdominal pain (during polymyxin B treatment, all patients): no abdominal pain was reported by any patient | Hyperpigmentation, patients [1]: 1/9 | Nephrotoxicity, patients [1]: 5/9 | Neurotoxicity, patients [1]: 5/9 | Study completion per protocol (Withdrawal reasons) (patient 1, treatment duration 6 days): Withdraw (AKI) | Study completion per protocol (Withdrawal reasons) (patient 2, treatment duration 6 days): Withdraw (AKI) | Study completion per protocol (Withdrawal reasons) (patient 3, treatment duration 14 days): Yes | Study completion per protocol (Withdrawal reasons) (patient 4, treatment duration 1 day (loading dose only)): Withdraw (pruritus and numbness on face and head, ataxia) | Study completion per protocol (Withdrawal reasons) (patient 5, treatment duration 5 days): Withdraw (AKI, pruritus and numbness on face and head, ataxia) | Study completion per protocol (Withdrawal reasons) (patient 6, treatment duration 14 days): Yes | Study completion per protocol (Withdrawal reasons) (patient 7, treatment duration 14 days): Yes | Study completion per protocol (Withdrawal reasons) (patient 8, treatment duration 4 days): Withdraw (AKI, pruritus and numbness on face and head, ataxia) | Study completion per protocol (Withdrawal reasons) (patient 9, treatment duration 14 days): Yes | neurotoxicity among conscious patients (seven conscious patients (two sedated)): Five of seven and 5 of 7
